Common to all, as to type: in vivo
Data set [1] has as its system diamondback moth (Plutella xylostella). The data set is described as follows: Test method 4: sprayed cabbage seedlings, 3rd instar larvae of diamondback moth. The settings on record: 500 ppm, spray 20 mL/seedling on cabbage, after 5 days, 25° C. How it is done: (§1) Next, Test Examples are used to show effects of the Present compounds on harmful arthropods. In the following Test Examples, the tests were carried out at 25° C.
(§2) Each test compound is formulated according to the method described in the Formulation Example 5 to obtain each formulation, and water containing Sindaine (registered trademark) (0.03% by volume) is added thereto to prepare a diluted solution containing a prescribed concentration of each test compound.
(§3) Cabbage seedlings (on the developmental stage of the second to third true leaf) are planted in a container, and each of said diluted solutions is sprayed into the seedlings in a ratio of 20 mL/seedlings. Thereafter, the stem and leaf of the seedlings are cut out, and placed into a container lined with a filter paper. Five (5) the 3rd instar larvae of diamondback moth (Plutella xylostella) are released into the container. After 5 days, the number of the surviving insects is counted, and the mortality of insects is calculated by the following equation. Mortality (%)=(1−Number of surviving insects/5)×100

The subject of data set [2] is cotton aphids (Aphis gossypii). In words: Test method 2: diluted solution irrigated into plant foot of cucumber seedlings, cotton aphids released after 7 days. Particulars: 1000 ppm, irrigation into plant foot 5 mL/seedling, counted after additional 6 days, 25° C. The procedure:
as §1
Each test compound is formulated according to the method described in the Formulation Example 5 to obtain each formulation, and water is added thereto to prepare a diluted solution containing a prescribed concentration of each test compound.
Cucumber seedlings (on the developmental stage of the second true leaf) are planted in a container, and each of said diluted solutions is irrigated into the plant foot in a ratio of 5 mL/seedlings. After 7 days, approximately 30 cotton aphids (Aphis gossypii) (all stages of life) are released onto the surfaces of leaves of the cucumber seedlings. After additional 6 days, the number of the surviving insects is examined and the controlling value is calculated by the following equation. Controlling value (%)={1−(Cb×Tai)/(Cai×Tb)}×100 wherein the symbols in the equation represent the following meanings.
(§4) Cb: Number of the test insects in non-treated area;
Cai: Number of the surviving insects at the time of the investigation in non-treated area;
Tb: Number of the test insects in treated area;
(§5) Tai: Number of the surviving insects at the time of the investigation in treated area; […]

Data set [3] has as its system cotton aphids (Aphis gossypii). The data set is described as follows: Test method 1: diluted solution sprayed on cucumber seedlings infested with cotton aphids. Particulars: 500 ppm, spray 10 mL/seedling on cucumber, 5 days after spraying, 25° C. The procedure: as §1, §2
Cucumber (Cucumis sativus) seedlings (on the developmental stage of the second true leaf) are planted in a container and approximately 30 cotton aphids (Aphis gossypii) (all stages of life) are released onto the cucumber seedlings. After 1 day, each of said diluted solutions is sprayed into the seedlings in a ratio of 10 mL/seedling. After additional 5 days, the number of the surviving insects is examined and the controlling value is calculated by the following equation. Controlling value (%)={1−(Cb×Tai)/(Cai×Tb)}×100 wherein the symbols in the equation represent the following meanings.
as §4
Cai: Number of the surviving insects at the time of the investigation in non-treated area; Tb: Number of the test insects in treated area;
as §5

Data set [4] has as its system cotton worm (Spodoptera litura). The data set is described as follows: Test method 3: sprayed cabbage seedlings, 3rd instar larvae of cotton worm. Particulars: 500 ppm, spray 20 mL/seedling on cabbage, after 5 days, 25° C. The procedure: as §1, §2
as §3, with “Cabbage (Brassicae oleracea)” for “Cabbage”, “cotton worm (Spodoptera litura)” for “diamondback moth (Plutella xylostella)”

The subject of data set [5] is western corn rootworm (Diabrotica virgifera virgifera). In words: Test method 5: corn seedlings immersed in diluted solution, 2nd instar larvae of western corn rootworm. The settings on record: 500 ppm, corn seedlings immersed 30 seconds, after 5 days, 25° C. The procedure:
as §1
Each test compound is dissolved into a mixed solution (50 μL) of polyoxyethylene sorbitan mono-cocoate and acetone (at a volume ratio of polyoxyethylene sorbitan mono-cocoate:acetone=5:95) per 1 mg of the test compound. Water containing Sindaine (registered trademark) (0.03% by volume) is added thereto to prepare a diluted solution containing a prescribed concentration of each test compound.
Young seedlings of corns (Zea mays) are immersed into each of said diluted solutions for 30 seconds. Thereafter, two of said seedlings are placed into a petri dish (diameter: 90 mm), and 10 the 2nd instar larvae of western corn rootworm (Diabrotica virgifera virgifera) are released into the dish. After 5 days, the number of the dead insects is counted, and the mortality of insects is calculated by the following equation. Mortality (%)=(Number of dead insects/10)×100

What is called mortality is the share of the test organisms that died. Read a high mortality as a strong lethal effect.

For the compound `CCS(=O)(=O)c1c(-n2ccn3nc(C(F)(F)F)cc3c2=O)nc2ccc(C(F)(F)F)cn12` [compound 2], the mortality in data set [1], in data set [4] and in data set [5] was ≥ 80% each time. The controlling value in data set [2] and in data set [3] was ≥ 90% each time.
